Legend:
[1] = test system: Bell's Palsy; details: prednisolone 60 mg per day for 5 days then reduced by 10 mg per day, and 50 mg per day for 10 days; cited from earlier work
[2] = test system: Bell's Palsy; test: Example 2: treatment of a person suffering from Bell's Palsy; type: in vivo, human; details: 60 mg/day prednisone therapy alone for a month
Method: The patient, a person is diagnosed by their doctor as suffering from Bell's Palsy. […] The patient is then administered IVIG at 2 g/kg and 60 mg prednisone. Within three weeks, the Bell's Palsy is resolved by about 80%. The patient is then administered a second dose of IVIG at 2 g/kg and 60 mg. prednisone. Within two weeks, the patient is resolved by about 95%.

[3] = test system: Bell's Palsy; test: Example 1: treatment of person suffering from Bell's Palsy; type: in vivo, human; details: 60 mg/day prednisone therapy alone, two weeks
Method: The patient, a person was diagnosed by their doctor after claiming they are suffering from unexplained facial weakness. The patient's doctor diagnosed the patient as suffering from Bell's Palsy. […] Two weeks after administration, the patient is co-administered a single dose of IVIG at 2 g/kg and 60 mg prednisone and Bell's Palsy related symptoms the patient suffered from are reduced by 70% within two weeks from the co-administration.

| SMILES | outcome in patients with Bell's palsy [1] | time to complete recovery [1] | resolution of Bell's Palsy [2] | reduction in the symptoms of Bell's Palsy [3] |
| --- | --- | --- | --- | --- |
| C[C@]12C=CC(=O)C=C1CC[C@@H]1[C@@H]2[C@@H](O)C[C@@]2(C)[C@H]1CC[C@]2(O)C(=O)CO [prednisolone] | improves outcome | shortens the time to complete recovery |  |  |
| C[C@]12C=CC(=O)C=C1CC[C@@H]1[C@@H]2C(=O)C[C@@]2(C)[C@H]1CC[C@]2(O)C(=O)CO [prednisone] |  |  | did not resolve | no reduction |

From patent US11083789B2, “IVIG treatments for Bell's palsy” (InnoMed Technologies, Inc., priority 2019, dated 2021)
